The record followed here is US20090304823A1, “NUTRITIONAL COMPOSITIONS FOR PROMOTION OF BONE GROWTH AND MAINTENANCE OF BONE HEALTH AND METHODS REGARDING SAME” (NESTEC S.A., priority 2006, published 2009).

The subject of assay [1] is BMP-2. Briefly: BMP-2 gene reporter assay (high throughput screen). Type of assay: cell-based. As to the method:
BMP-2 gene reporter assay (high throughput screen) (i) BMP-2 high throughput gene reporter assay of non-hydrolyzed MeOH/H2O extracts (1a) and corresponding glycosidase hydrolyzed extract in ethyl acetate (1b). Extracts were tested twice at concentrations of 1 to 100 μg/ml, diluted in culture medium from plant extract stocks prepared as 50 mg/ml in DMSO. (ii) Extracts positive in the BMP-2 screen were prepared de novo and screened again with dose-response to confirm as “hits”. (iii) BMP-2 testing of subfractionation of positives/hits and candidate pure compounds

The subject of assay [2] is osteoblast cells. As to the kind of experiment: Alkaline phosphatase assay in osteoblast cells (osteoblast differentiation). Type of assay: cell-based.
Assay [3] relates to neonatal murine calvarial bones. Briefly: Calvaria organ culture in vitro, bone formation. Type of assay: cell-based. The procedure: (v) Final injection in vivo of “hit” extract into mouse calvaria bones and monitoring of bone area and thickness. Extracts were assessed in a 4-day in vitro neonatal murine calvarial assay. Bones were incubated with the extracts for the entire 4 days.

Assay [4] concerns bovine articular cartilage explants. As to the kind of experiment: Cytokine-induced collagen degradation in articular cartilage explants. Type of assay: cell-based. The following applies: 1 or 5 μM; FIG. 9C. An excerpt: (vii) Effects on cytokine-induced type II collagen degradation, MMP-mediated aggrecan degradation and aggrecanase-mediated degradation in bovine articular cartilage explants.
We investigated here whether 2 different rosemary extracts and carnosol, one of the main components of this extract, could inhibit the degradation of collagen and aggrecan in cultured explants of articular cartilage. Explants from healthy bovine articular cartilage were put in culture. However, such explants naturally display a very low catabolic activity which is not ideal to test the anti-catabolic activity of potential bioactives. To improve the sensitivity of the assay, the explants are cultured in presence of 2 pro-inflammatory cytokines, TNF-α and oncostatin known to act together as potent inducers of MMP and aggrecanase activities.

Assay [5] relates to Osteopontin (OPN) mRNA. Briefly: OPN mRNA induction by real-time PCR in hPOBtert osteoblasts. The following applies: hPOBtert cells, 48 h; FIG. 10. It is filed as cell-based, human. The procedure: Cell culture—HPOBTert osteoblasts were seeded on collagen-coated plates and grown in MEM Eagle α Modification medium supplemented with 10% fetal bovine serum, 1% L-glutamine and penicillin/streptomycin, 1 mM β-glycerolphosphate and 50 μg/ml ascorbic acid in a humidified atmosphere of 5% CO2, and 95% air at 37° C. When carnosol and inhibitors were added, an equivalent amount of Me2SO was used as a vehicle control. Analysis of mRNA levels by Real-Time PCR—Total cellular RNA was extracted using the NucleoSpin RNA II kit (Macherey-Nagel, Switzerland). Equal amounts (1 μg) of RNA from the different treatments were reverse-transcribed using the First Strand cDNA Synthesis kit for RT-PCR (Roche, Mannheim, Germany). For each sample, 2 μl 10× reaction buffer, 4 μl 25 mM MgCl2, 2 μl nucleotide mix, 2 μl random primers, 1 μl RNAse inhibitor and 0.4 μl AMV reverse transcriptase from the kit were added to the sample. The reverse transcriptase was performed at the following thermal cycling conditions (25° C. for 10 min, 42 C for 60 min, and 75° C. for 5 min) using the PTC-100TM Concept, Switzerland). Real-time Quantitative PCR—Quantitative PCR was performed in 25 μl in triplicates. This consisted of 12.5 μl of Taqman 2× Universal PCR Master Mix, 1.25 μl Assay-on-Demand primers and probes (Applied Biosystems, USA) and 6.25 μl RNAse free water. […]

Assay [6] deals with NQO1. As to the kind of experiment: NQO1 induction, immunoblot of hPOBtert cell extracts. The following applies: hPOBtert cells; FIG. 11. Type of assay: cell-based, human. As to the method: Preparation of cytoplasmic extracts—hPOBtert cells were washed two times with cold phosphate-buffered saline and harvested with lysis buffer (1% Triton X-100, 20 mM Tris/HCL pH 8, 137 mM Nacl, 10% Glycerol, 2 mM EDTA pH 8, and freshly added proteinase inhibitors: 1 mM phenylmethylsulfonylfluoride, 0.15 U/ml Aprotinin, 10 μg/ml Leupeptide and 10 μg/ml Pepstatin). The samples were centrifuged at 13000 rpm, 4° C. for 5 min and the supernatant transferred to a fresh tube. The protein concentration was determined using the BioRad protein assay. Approximately 50 μg of each sample were mixed with a suitable volume of sample buffer, denatured for 5 min at 95° C. together with 5 μl protein standard, chilled on ice, and loaded on a 10% ready gel, and submitted to immunoblot analysis using anti-NQO1 antibodies.
Immunoblotting—50 μg of protein cell lysate were resolved by SDS-PAGE. After electrophoresis, proteins were transferred to a PVDF membrane (Invitrogen) according to the manufacturer's protocol. Membranes probed for OPN and NQO1 were blocked and probed in 5% milk in Tris-buffered saline/Tween (20 mM Tris base, pH 7.6, 137 mM, 0.1% Tween 20). The blots were visualised by chemiluminescence development, Western blotting detection system (Amersham Biosciences).
Antibodies—The NQO1 (sc-16464)-specific antibodies were purchased from Santa Cruz Biotechnologies Inc (Santa Cruz, Calif.). […]

For assay [7], the system named is OPG/RANKL. Briefly: Osteoblast/osteoclast co-culture system, cytokine regulation. Type of assay: cell-based. The procedure:
For example, at least 3 phenolics (e.g. eupafolin, carnosol, scutellarein) may contribute to the anabolic potential of the rosemary extract. Additional phenolics of rosemary include genkwanin, kaempferol, acacetin. The rosemary plant extracts and pure compounds were tested in an osteoblast/osteoclast co-culture system.

In the case of `CC(C)c1cc2c(c(O)c1O)[C@@]13CCCC(C)(C)[C@@H]1C[C@@H]2OC3=O` [VII, Carnosol], the BMP-2 induction in assay [1] (2.5-10 μM) is 4.5-7X. For the same molecule, the “BMP- Activity” value in assay [1] (compounds isolated from rosemary extract 2188) is given as “YES”. In assay [2] (2.5-10 μM), the ALP activity induction is given as 2X. Moreover, the “Bone formation in organ culture” value in assay [3] (2.5 μM) is “Slight BF for 2.5 μM”; in assay [3] (5, 10 μM), “Good BF for 5, 10 μM”. The “cytokine induced collagen degradation” value in assay [4] was “inhibited”. The “OPN expression (OPN mRNA levels)” value in assay [5] is reported as “induce OPN expression dose-dependently”. In addition, the “expression of the phase II enzyme NQO1” value in assay [6] was “induces the expression”. Further, the “regulation of the key cytokines controlling bone remodelling, OPG/RANKL” value in assay [7] is “activity for regulation”.

Turning to `O=c1cc(-c2ccc(O)cc2)oc2cc(O)c(O)c(O)c12` [IX, Scutellarein], the BMP-2 induction in assay [1] (5, 10 μM) is given as 3-4X. In assay [2] (10 μM), this molecule returned an ALP activity induction of 2X.

Take `COc1c(O)cc2oc(-c3ccc(O)c(O)c3)cc(=O)c2c1O` [Eupafolin]: the BMP-2 induction in assay [1] (2.5-10 μM) is given as 3-8X. The ALP activity induction was 2 X in assay [2] (5 μM) and 4 X in assay [2] (10 μM). Besides, the “regulation of the key cytokines controlling bone remodelling, OPG/RANKL” value in assay [7] was “activity for regulation”.

In assay [1] (1-10 μM), `O=c1c(O)c(-c2ccc(O)cc2)oc2cc(O)cc(O)c12` [Kaempferol] registered a BMP-2 induction of 2.5X. In addition, the ALP activity induction in assay [2] (2.5-10 μM) was 2-4X. The “Bone formation in organ culture” value in assay [3] (10 μM) is “Slight at 10 μM”.

As to `COc1ccc(-c2cc(=O)c3c(O)cc(O)cc3o2)cc1` [Acacetin], in assay [1] (5-10 μM), the BMP-2 induction was 3-5X. The same molecule returned an ALP activity induction in assay [2] (5-10 μM) of 2X.

The molecule `COc1cc(O)c2c(=O)cc(-c3ccc(O)cc3)oc2c1` [V, Genkwanin] registered a BMP-2 induction in assay [1] (5 μM) of 4X. This molecule had an ALP activity induction in assay [2] (10 μM) of 1.5X.
